Assay type in all cases: in vivo, human
In data set [1] the test system is inflammatory osteoarthritis and rheumatism. As to the kind of experiment: Clinical treatment of a patient, Example 2. The note with it: for effect of past treatment: person, before Accutane. Here is the method: (§1) Example 1 to 3 illustrate clinical effectiveness of the above described treatment method. An initial treatment and a maintenance treatment as described above were prescribed to the patients. It is noted that the patients described in the Examples were in the average weight range, therefore, an average dosage of 40 mg was used. It is noted that all patients were told to totally avoid sun exposure during the initial treatment dosage period and for the first one or two weeks after instituting the maintenance dosage because of sun sensitivity with the use of Accutane®.
A person retired Navy Chief Warrant Officer was diagnosed with inflammatory osteoarthritis and rheumatism. The symptoms included joint pains for six to ten years. Initially in 1992 the join pains affected the right hip, and the patient suffered from the hip pain while working. In 1994, the patient developed neck and left shoulder pain. […] Furthermore, the shoulder was diagnosed as a rotator cuff injury. In 1997, the patient's hands became tender when playing golf. The hand condition progressed to puffiness of fingers and a gripping problem with difficulty closing hands. The patient's blood chemistry was normal.
The patient was placed on the 13-cis retanoic acid treatment on May 1, 2002 with an initial dosage about 40 mg Accutane® daily for fourteen days, followed by a maintenance dosage of about 40 mg Accutane® twice a week. […] As a result of such a significant improvement of the physical condition, the patient's golf handicap dropped from eleven (11) to nine (9).

Data set [2] has as its system osteoarthritis with capsulitis. The experiment in a line: Clinical treatment of a patient, Example 1. The settings on record: for benefit of earlier therapeutic treatments: before Accutane, Asprin two to five 325 mg pills per day. Here is the method: as §1
A patient in generally good health had the onset of joint complaints in 1988 affecting only the hands. The main location was in the distal interphalangeal joint (IP joint) which had been fractured in 1980. Symptoms were puffiness and swelling with increasing tenderness over the years. The tenderness had become so pronounced that in 1994 they stopped shaking hands because of the pain. In addition they had progressive difficulty making a fist because of swelling and tightness of the fingers.
X-ray examination found thining of joint space and capsular swelling of the interphalangeal joints. Laboratory examination results were normal. The patient was diagnosed with osteoarthritis with capsulitis.
In April 1997 the patient started taking Accutane® (13-cis retanoid acid, Hoffmann-La Roche Inc., Nutley, N.J.) for another medical condition in an initial dosage of about 40 mg Accutane® daily for twenty one days, followed by a maintenance dosage of about 40 mg Accutane® twice a week (on Monday and Friday).

Data set [3] deals with musculoskeletal and connective tissue inflammations. The experiment in a line: Treatment of patients with initial and maintenance dosage, general findings. The settings on record: long term use of the low maintenance dosage. Here is the method:
Preferably, the treatment method further includes two treatment periods: an initial treatment, and a maintenance treatment. First, in the initial treatment, a patient administrates an initial dosage of 13-cis-retinoic acid for a period from about ten days to about five months. Thereafter, the patient administrates a lower maintenance dosage of 13-cis-retinoic acid.
The dosage is determined based on the patient's body weight. The initial dosage is in a range from about 10 mg to 80 mg 13-cis-retinoic acid daily (about 0.14 mg to about 1.1 mg per kilogram (kg) of body weight). For average men having a body weight about 160 lbs (72.6 kg), the average initial dosage is about 40 mg daily. The maintenance dosage is in a range from about 10 mg to 80 mg 13-cis-retinoic acid every three to seven days (about 0.14 mg to about 1.1 mg per kilogram (kg) of body weight). The average maintenance dosage for average men having a body weight about 160 lbs is about 40 mg every three to seven days. The dosages should be adjusted accordingly for children or those who weigh substantially less than or above the average body weight.
Furthermore, no serious adverse side effects were observed by using the described treatment. […]

The test system of another data set is osteoarthritis. As to the kind of experiment: Clinical treatment of a patient, Example 3. Here is the method: as §1
A farmer, had more than a ten year history of hand pain involving fingers, and associated with swelling and tenderness of interphalangeal joints. The hand condition made their work and playing golf difficult. The patient was diagnosed with osteoarthritis.
The patient was placed on 13-cis retanoic acid treatment in April of 2001, with an initial dosage of about 40 mg Accutane® daily for twenty one days, followed by a maintenance dosage of about 40 mg Accutane® twice a week. […] The improvements were maintained during a subsequent six month continuation of the maintenance dosage.

[4] abbreviates: 40 mg daily 14 days, then 40 mg twice a week.
Setting [5] is: about 40 mg daily 21 days, then 40 mg twice a week.

Consider `CC(=O)Oc1ccccc1C(=O)O` [Aspirin], for which the “effect of past treatment” value in data set [1] is on record as “minimal effect”. For the same compound, the “benefit of earlier therapeutic treatments” value (“benefit” below) in data set [2] is listed as “minimal or no benefit”.
For the compound `COc1ccc2cc([C@H](C)C(=O)O)ccc2c1` [Naprosyn, naproxen], the “benefit” value in data set [2] is given as “minimal or no benefit”.
On to `CC(C)Cc1ccc(C(C)C(=O)O)cc1` (stereo not drawn) [Motrin, ibuprofen], for which the “effect of past treatment” value in data set [1] is reported as “minimal effect”. Besides, the “benefit” value in data set [2] is listed as “minimal or no benefit”.
Turning to `CC1=C(/C=C/C(C)=C/C=C/C(C)=C\C(=O)O)C(C)(C)CCC1` [Accutane, 13-cis-retinoic acid], in data set [1] (setting [4]), the “hand puffiness and grip problems” value is listed as “no longer exist”; the side effects entry was “minimal side effects”. Besides, the shoulder pain result in data set [1] (about 40 mg daily 14 days, then 40 mg twice a week, after total of seven weeks, physical therapy continued) is “completely abated”. Moreover, the “range of movement (shoulder)” value in data set [1] (after total of seven weeks of treatment) is “returned to normal”. The “neck and hip pains” value in data set [1] (as of August, 2002 (start May 1, 2002)) was “almost completely abated”. Further, the hand tenderness result in data set [1] (if they play golf three to four days in a row) was “still exhibit a tinge of tenderness”. Besides, the “long term effect on musculoskeletal and connective tissue inflammations” value in data set [3] is “provides a long term control”. Further, in the data set on osteoarthritis (after ten weeks treatment), the range of movement entry was “improvement”; the “swelling and tenderness of the fingers” value is “decreased”. Also, the “pre-therapy and follow-up blood tests” value with osteoarthritis (human, in vivo) is on record as “normal”. The symptoms result in the data set on osteoarthritis (person, about 40 mg daily 21 days, then 40 mg twice a week, after ten weeks treatment) is given as “began to improve”. Besides, the persistence of improvements entry with osteoarthritis (subsequent six month continuation of the maintenance dosage) is reported as “maintained”. In addition, the side effects result with osteoarthritis (subsided after taking the maintenance dosage) was “no side effects other than dry lips and skin”. Further, in data set [2] (setting [5]), the cervical spine tenderness entry is “slow improvement”; the “fibro calcified peri-spinous nodules of cervical spine” value is reported as “dissolution”; the “range of motion (ROM), cervical spine” value is given as “increased range of motion”. The “stiff and painful shoulder condition (old rotator cuff injury, right shoulder)” value in data set [2] (about 40 mg daily 21 days, then 40 mg twice a week, over the ensuing months) was “improvement”. Besides, in data set [2] (continued maintenance dosage), the “blood-chemistries and hematology test results” value was “remained normal”; the “overall physical well being / musculoskeletal infirmities” value is reported as “no longer has any musculoskeletal infirmities”. In data set [2] (initial treatment about 40 mg daily), the “right shoulder pain during the initial treatment” value is reported as “increased right shoulder pain was noted, which then abated”. For the same compound, in data set [2] (long-term maintenance dosage 40 mg twice a week), the physical side effects entry is “No physical side effects have been noted other than dry lips and skin in the early stages”. Moreover, the hand condition result in data set [2] (person, about 40 mg daily for 21 days, then about 40 mg twice a week, over the ensuing months) is reported as “gradual, but steady improvement”.

The values are drawn from patent US7071228B2, “Method of treating musculoskeletal and connective tissue inflammations” (priority 2002, dated 2006).
